Source: patent US10758534B2 (Vertex Pharmaceuticals Incorporated, priority 2014, dated 2020)

biological target: T1, F508del (Homo sapiens, UniProt P13569, DEL508-508); test: Protocol 2: FRET membrane potential optical assay (VIPR), identification of correction compounds; type: cell-based; conditions: F508del CFTR modulator activity; compounds of Table 1; read-out: EC30
T1 construct: expressed in transfected cells
In short: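 NIH3T3 mouse fibroblasts stably expressing F508del-CFTR incubated with compound 16 h at 37 °C in serum-free medium, then loaded with CC2-DMPE/DiSBAC2(3) FRET dyes. Channel activated with 10 μM forskolin plus 20 μM genistein in Cl⁻-free (gluconate) bath; depolarisation from Cl⁻ efflux read on VIPR II.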

T1 sequence (P13569 with tags, fused parts or gaps DEL508-508): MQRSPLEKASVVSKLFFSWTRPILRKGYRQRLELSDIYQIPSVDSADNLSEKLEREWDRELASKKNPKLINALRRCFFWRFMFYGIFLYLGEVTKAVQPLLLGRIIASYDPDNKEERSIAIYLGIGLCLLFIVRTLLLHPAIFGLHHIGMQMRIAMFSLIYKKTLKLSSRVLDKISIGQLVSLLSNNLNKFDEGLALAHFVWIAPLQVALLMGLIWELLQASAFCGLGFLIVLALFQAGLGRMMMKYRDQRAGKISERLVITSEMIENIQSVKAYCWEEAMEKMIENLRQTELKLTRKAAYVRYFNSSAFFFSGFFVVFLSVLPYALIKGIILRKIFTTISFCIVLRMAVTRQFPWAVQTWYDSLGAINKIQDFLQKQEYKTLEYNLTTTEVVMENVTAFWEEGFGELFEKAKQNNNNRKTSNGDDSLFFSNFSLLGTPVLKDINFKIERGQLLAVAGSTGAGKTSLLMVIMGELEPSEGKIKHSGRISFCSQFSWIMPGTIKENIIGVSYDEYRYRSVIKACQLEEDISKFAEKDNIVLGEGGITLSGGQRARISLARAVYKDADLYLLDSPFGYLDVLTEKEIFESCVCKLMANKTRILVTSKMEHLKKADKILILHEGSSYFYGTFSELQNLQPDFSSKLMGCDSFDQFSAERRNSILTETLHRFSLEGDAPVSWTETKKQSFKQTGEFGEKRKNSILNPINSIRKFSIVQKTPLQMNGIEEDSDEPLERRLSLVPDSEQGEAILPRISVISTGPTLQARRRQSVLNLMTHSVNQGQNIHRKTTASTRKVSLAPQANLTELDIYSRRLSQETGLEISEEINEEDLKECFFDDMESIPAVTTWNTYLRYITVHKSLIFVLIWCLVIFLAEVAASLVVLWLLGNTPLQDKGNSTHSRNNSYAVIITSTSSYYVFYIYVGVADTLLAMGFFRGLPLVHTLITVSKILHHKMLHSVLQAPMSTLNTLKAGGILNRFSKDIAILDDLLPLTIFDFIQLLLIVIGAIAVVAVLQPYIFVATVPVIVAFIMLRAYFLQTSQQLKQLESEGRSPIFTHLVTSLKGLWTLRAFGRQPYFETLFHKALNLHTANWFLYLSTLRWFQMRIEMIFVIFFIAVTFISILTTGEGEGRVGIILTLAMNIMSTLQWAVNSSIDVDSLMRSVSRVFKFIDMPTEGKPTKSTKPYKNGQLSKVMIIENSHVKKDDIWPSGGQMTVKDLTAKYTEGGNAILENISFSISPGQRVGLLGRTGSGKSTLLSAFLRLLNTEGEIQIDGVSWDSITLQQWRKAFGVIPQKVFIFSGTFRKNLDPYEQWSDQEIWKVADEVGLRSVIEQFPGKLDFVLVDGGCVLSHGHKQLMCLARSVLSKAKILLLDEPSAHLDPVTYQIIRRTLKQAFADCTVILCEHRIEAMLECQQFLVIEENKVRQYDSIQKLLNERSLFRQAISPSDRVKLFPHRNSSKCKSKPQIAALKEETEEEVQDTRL

Row | EC30 | SMILES
1 | < 3000 nM | C[C@@H]1CN(c2nc(-c3ccc(C#N)cc3)ccc2C(=O)NS(=O)(=O)c2cccnc2N)C(C)(C)C1 [Compound 2096, N-[(2-amino-3-pyridyl)sulfonyl]-6-(4-cyanophenyl)-2-[(4S)-2,2,4-trimethylpyrrolidin-1-yl]pyridine-3-carboxamide]
2 | < 3000 nM | C[C@@H]1CN(c2nc(C3CC4CCC3C4)ccc2C(=O)NS(=O)(=O)c2cccnc2N)C(C)(C)C1 (stereo partly drawn) [Compound 2097, N-[(2-amino-3-pyridyl)sulfonyl]-6-norbornan-2-yl-2-[(4S)-2,2,4-trimethylpyrrolidin-1-yl]pyridine-3-carboxamide]
3 | < 3000 nM | CC1CN(c2ncccc2C(=O)NS(=O)(=O)c2cccc(N3CCc4ccccc4C3)n2)C(C)(C)C1 (stereo not drawn) [Compound 2098, N—[[6-(3,4-dihydro-1H-isoquinolin-2-yl)-2-pyridyl]sulfonyl]-2-(2,2,4-trimethylpyrrolidin-1-yl)pyridine-3-carboxamide]
4 | < 3000 nM | CC1CN(c2ncccc2C(=O)NS(=O)(=O)c2cccc(OCc3ccc(F)cc3F)n2)C(C)(C)C1 (stereo not drawn) [Compound 2099, N—[[6-[(2,4-difluorophenyl)methoxy]-2-pyridyl]sulfonyl]-2-(2,2,4-trimethylpyrrolidin-1-yl)pyridine-3-carboxamide]
5 | < 3000 nM | COc1cccc(-c2ccc(C(=O)NS(=O)(=O)c3ccc[nH]c3=O)c(N3C[C@@H](C)CC3(C)C)n2)n1 [Compound 2101, 6-(6-methoxy-2-pyridyl)-N-[(2-oxo-1H-pyridin-3-yl)sulfonyl]-2-[(4S)-2,2,4-trimethylpyrrolidin-1-yl]pyridine-3-carboxamide]
6 | < 3000 nM | CC1CN(c2ncccc2C(=O)NS(=O)(=O)c2cccc(Nc3ccc(F)cc3)n2)C(C)(C)C1 (stereo not drawn) [Compound 2102, N—[[6-(4-fluoroanilino)-2-pyridyl]sulfonyl]-2-(2,2,4-trimethylpyrrolidin-1-yl)pyridine-3-carboxamide]
7 | < 3000 nM | CCOc1cccc(F)c1-c1ccc(C(=O)NS(=O)(=O)c2cccnc2N)c(N2C[C@@H](C)CC2(C)C)n1 [Compound 2103, N-[(2-amino-3-pyridyl)sulfonyl]-6-(2-ethoxy-6-fluoro-phenyl)-2-[(4S)-2,2,4-trimethylpyrrolidin-1-yl]pyridine-3-carboxamide]
8 | < 3000 nM | C[C@@H]1CN(c2nc(-c3ccc4c(c3)OC(F)(F)O4)ccc2C(=O)NS(=O)(=O)c2cccc(N)n2)C(C)(C)C1 [Compound 2104, N-[(6-amino-2-pyridyl)sulfonyl]-6-(2,2-difluoro-1,3-benzodioxol-5-yl)-2-[(4S)-2,2,4-trimethylpyrrolidin-1-yl]pyridine-3-carboxamide]
9 | < 3000 nM | C[C@@H]1CN(c2nc(-c3cc(F)ccc3F)ccc2C(=O)NS(=O)(=O)c2cccnc2N)C(C)(C)C1 [Compound 2105, N-[(2-amino-3-pyridyl)sulfonyl]-6-(2,5-difluorophenyl)-2-[(4S)-2,2,4-trimethylpyrrolidin-1-yl]pyridine-3-carboxamide]
10 | < 3000 nM | CC1CN(c2ncccc2C(=O)NS(=O)(=O)c2cccc(Nc3c(F)cc(F)cc3F)n2)C(C)(C)C1 (stereo not drawn) [Compound 2106, N—[[6-(2,4,6-trifluoroanilino)-2-pyridyl]sulfonyl]-2-(2,2,4-trimethylpyrrolidin-1-yl)pyridine-3-carboxamide]
11 | < 3000 nM | CC1CN(c2ncccc2C(=O)NS(=O)(=O)c2cccc(N3CCC(Cc4ccccc4)CC3)n2)C(C)(C)C1 (stereo not drawn) [Compound 2107, N—[[6-(4-benzyl-1-piperidyl)-2-pyridyl]sulfonyl]-2-(2,2,4-trimethylpyrrolidin-1-yl)pyridine-3-carboxamide]
12 | < 3000 nM | CC1CN(c2ncccc2C(=O)NS(=O)(=O)c2cccc(Oc3cccc(C(C)C)c3)n2)C(C)(C)C1 (stereo not drawn) [Compound 2108, N—[[6-(3-isopropylphenoxy)-2-pyridyl]sulfonyl]-2-(2,2,4-trimethylpyrrolidin-1-yl)pyridine-3-carboxamide]
13 | > 10000 nM | C[C@@H]1CN(c2nc(-c3cccc(F)c3F)ccc2C(=O)NS(=O)(=O)N2CC[C@H](N)C2)C(C)(C)C1 [Compound 2110, N-[(3S)-3-aminopyrrolidin-1-yl]sulfonyl-6-(2,3-difluorophenyl)-2-[(4S)-2,2,4-trimethylpyrrolidin-1-yl]pyridine-3-carboxamide]
14 | < 3000 nM | CC1CN(c2ncccc2C(=O)NS(=O)(=O)c2cccc(OCc3cnn(-c4ccccc4)c3)n2)C(C)(C)C1 (stereo not drawn) [Compound 2111, N—[[6-[(1-phenylpyrazol-4-yl)methoxy]-2-pyridyl]sulfonyl]-2-(2,2,4-trimethylpyrrolidin-1-yl)pyridine-3-carboxamide]
15 | 3000 to 10000 nM | CC1CN(c2ncc(-c3ccc(C4(CO)CC4)cc3)cc2C(=O)NS(=O)(=O)c2cccc(N)n2)C(C)(C)C1 (stereo not drawn) [Compound 2112, N-[(6-amino-2-pyridyl)sulfonyl]-5-[4-[1-(hydroxymethyl)cyclopropyl]phenyl]-2-(2,2,4-trimethylpyrrolidin-1-yl)pyridine-3-carboxamide]
16 | < 3000 nM | CC(C)Cn1ccc(-c2ccc(C(=O)NS(=O)(=O)c3cccc(N)n3)c(N3C[C@@H](C)CC3(C)C)n2)n1 [Compound 2114, N-[(6-amino-2-pyridyl)sulfonyl]-6-(1-isobutylpyrazol-3-yl)-2-[(4S)-2,2,4-trimethylpyrrolidin-1-yl]pyridine-3-carboxamide]
17 | < 3000 nM | CC1CN(c2ncccc2C(=O)NS(=O)(=O)c2cccc(OCC3COc4ccccc4O3)n2)C(C)(C)C1 (stereo not drawn) [Compound 2115, N—[[6-(2,3-dihydro-1,4-benzodioxin-3-ylmethoxy)-2-pyridyl]sulfonyl]-2-(2,2,4-trimethylpyrrolidin-1-yl)pyridine-3-carboxamide]
18 | < 3000 nM | CC1CCN(c2cccc(S(=O)(=O)NC(=O)c3cccnc3N3CC(C)CC3(C)C)n2)C1 (stereo not drawn) [Compound 2116, N—[[6-(3-methylpyrrolidin-1-yl)-2-pyridyl]sulfonyl]-2-(2,2,4-trimethylpyrrolidin-1-yl)pyridine-3-carboxamide]
19 | < 3000 nM | CC1CN(c2ncccc2C(=O)NS(=O)(=O)c2cccc(OCc3ccc(-n4cccn4)cc3)n2)C(C)(C)C1 (stereo not drawn) [Compound 2118, N—[[6-[(4-pyrazol-1-ylphenyl)methoxy]-2-pyridyl]sulfonyl]-2-(2,2,4-trimethylpyrrolidin-1-yl)pyridine-3-carboxamide]
20 | < 3000 nM | CC1CN(c2ncccc2C(=O)NS(=O)(=O)c2cccc(NCCCCc3ccccc3)n2)C(C)(C)C1 (stereo not drawn) [Compound 2119, N—[[6-(4-phenylbutylamino)-2-pyridyl]sulfonyl]-2-(2,2,4-trimethylpyrrolidin-1-yl)pyridine-3-carboxamide]
21 | < 3000 nM | CC(C)Oc1ccc(-c2ccc(C(=O)NS(=O)(=O)N3CC[C@H](N)C3)c(N3C[C@@H](C)CC3(C)C)n2)cc1 [Compound 2120, N-[(3S)-3-aminopyrrolidin-1-yl]sulfonyl-6-(4-isopropoxyphenyl)-2-[(4S)-2,2,4-trimethylpyrrolidin-1-yl]pyridine-3-carboxamide]
22 | < 3000 nM | CCOC(=O)c1ccc(Nc2cccc(S(=O)(=O)NC(=O)c3cccnc3N3CC(C)CC3(C)C)n2)cc1 (stereo not drawn) [Compound 2122, ethyl 4-[[6-[[2-(2,2,4-trimethylpyrrolidin-1-yl)pyridine-3-carbonyl]sulfamoyl]-2-pyridyl]amino]benzoate]
23 | < 3000 nM | CC1CN(c2ncccc2C(=O)NS(=O)(=O)c2cccc(N3CCC(Cc4ccccc4)C3)n2)C(C)(C)C1 (stereo not drawn) [Compound 2123, N—[[6-(3-benzylpyrrolidin-1-yl)-2-pyridyl]sulfonyl]-2-(2,2,4-trimethylpyrrolidin-1-yl)pyridine-3-carboxamide]
24 | < 3000 nM | COc1cc(-c2ccc(C(=O)NS(=O)(=O)c3cccnc3N)c(N3C[C@@H](C)CC3(C)C)n2)ccc1F [Compound 2124, N-[(2-amino-3-pyridyl)sulfonyl]-6-(4-fluoro-3-methoxy-phenyl)-2-[(4S)-2,2,4-trimethylpyrrolidin-1-yl]pyridine-3-carboxamide]
25 | < 3000 nM | C[C@@H]1CN(c2nc(-c3ccc4[nH]ccc4c3)ccc2C(=O)NS(=O)(=O)c2cccnc2N)C(C)(C)C1 [Compound 2125, N-[(2-amino-3-pyridyl)sulfonyl]-6-(1H-indol-5-yl)-2-[(4S)-2,2,4-trimethylpyrrolidin-1-yl]pyridine-3-carboxamide]
26 | < 3000 nM | Cc1ccc(-c2ccc(C(=O)NS(=O)(=O)c3cccnc3N)c(N3C[C@@H](C)CC3(C)C)n2)c2ccccc12 [Compound 2126, N-[(2-amino-3-pyridyl)sulfonyl]-6-(4-methyl-1-naphthyl)-2-[(4S)-2,2,4-trimethylpyrrolidin-1-yl]pyridine-3-carboxamide]

Row | SMILES | EC30
27 | C[C@@H]1CN(c2nc(OC3CCCC3)c(F)cc2C(=O)NS(=O)(=O)c2cccc(N)n2)C(C)(C)C1 [Compound 2100, N-[(6-amino-2-pyridyl)sulfonyl]-6-(cyclopentoxy)-5-fluoro-2-[(4S)-2,2,4-trimethylpyrrolidin-1-yl]pyridine-3-carboxamide] | < 3000 nM
28 | CC(C)COc1cc(F)cc(-c2ccc(C(=O)NS(=O)(=O)C3CCCC3)c(N3C[C@@H](C)CC3(C)C)n2)c1 [Compound 2113, N-cyclopentylsulfonyl-6-(3-fluoro-5-isobutoxy-phenyl)-2-[(4S)-2,2,4-trimethylpyrrolidin-1-yl]pyridine-3-carboxamide] | < 3000 nM
29 | CC(C)COc1cc(F)cc(-c2ccc(C(=O)NS(=O)(=O)c3cccc(N)n3)c(N3CC(C)C3)n2)c1 [Compound 2117, N-[(6-amino-2-pyridyl)sulfonyl]-6-(3-fluoro-5-isobutoxy-phenyl)-2-(3-methylazetidin-1-yl)pyridine-3-carboxamide] | < 3000 nM
30 | CC(C)COc1cc(F)cc(-c2ncc(C(=O)NS(=O)(=O)c3cccc(N)n3)c(N3C[C@@H](C)CC3(C)C)n2)c1 [Compound 2121, N-[(6-amino-2-pyridyl)sulfonyl]-2-(3-fluoro-5-isobutoxy-phenyl)-4-[(4S)-2,2,4-trimethylpyrrolidin-1-yl]pyrimidine-5-carboxamide] | < 3000 nM
